These results are taken from patent US10975037B2 (priority 2018, dated 2021).

The target of assay [1] is human RORγt ligand binding domain (RORγt LBD) (Homo sapiens (Human), UniProt P51449). Put plainly: RORγt ThermoFluor® assay (thermal shift binding). The method in brief:
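Thermal shift with 0.065 mg/mL RORγt LBD and 60 μM 1,8-ANS in 100 mM Hepes pH 7.0, 10 mM NaCl, 2.5 mM GSH, 0.002% Tween-20.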
A general note: Differential scanning fluorimetry follows unfolding on heating by fluorescence.

The subject of assay [2] is IL-17 production by CD4 T cells under conditions which favor Th17 differentiation. Put plainly: Human Th17 assay (IL-17 production by CD4 T cells). It is filed as cell-based. On the procedure: The human Th17 assay tests the effect of RORγt modulatory compounds on IL-17 production by CD4 T cells under conditions which favor Th17 differentiation. Total CD4^+ T cells were isolated from the peripheral blood mononuclear cells (PBMC) of healthy donors using a CD4^+ T cell isolation kit II, following the manufacturer's instructions (Miltenyi Biotec). […] 50 μL of compound at titrated concentrations in DMSO were added into each well at final DMSO concentration at 0.2%. Cells were incubated for 1 hour, then 50 μL of Th17 cell differentiation medium was added to each well. […] Cells were cultured at 37° C. and 5% CO2 for 3 days. Supernatants were collected and the accumulated IL-17 in culture was measured by using MULTI-SPOT® Cytokine Plate following manufacture's instruction (Meso Scale Discovery). The plate was read using Sector Imager 6000, and IL-17 concentration was extrapolated from the standard curve. The IC50s were determined by GraphPad.

For the next assay, the target named is full-length human RORγt (Homo sapiens (Human), UniProt P51449). The assay can be described thus: RORγt (full-length human) reporter assay, conditions A or B, HEK293T cells. The note with it: for inhibition at 6 µM: read-out: RORγt (FL) Reporter Assay A or B, % inhibition @ 6 μM, 6 μM compound concentration. The class given is cell-based. The method in brief:
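Dual-luciferase read-out was taken after an overnight (16–20 h) compound exposure. Firefly data were scaled between DMSO-only and saturating reference compound, Renilla-normalized, then plotted against concentration for IC50.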

Where [3] appears, read: read-out: ThermoFluor® Assay, Kd.
Where [4] appears, read: Homo sapiens, CD4+ T; read-out: Human Th17 Assay, IC50.
Setting [5] is: RORγt (FL) Reporter Assay A or B, IC50, HEK293T cells.
The mark [6] stands for this setting: HEK-293T, 0.67 μM compound concentration (footnote ****), read-out: RORγt (FL) Reporter Assay A or B, % inhibition.
The mark [7] stands for this setting: HEK-293T, 3 μM compound concentration (footnote *), read-out: RORγt (FL) Reporter Assay A or B, % inhibition.
Setting [8] is: HEK-293T, read-out: RORγt (FL) Reporter Assay A or B, % inhibition.

Where two headings read alike, the source gives them in different places. Marks after values point to notes of the source that are not given here.

full-length human RORγt, sequence (P51449 other isoform, or with tags, fused parts or gaps): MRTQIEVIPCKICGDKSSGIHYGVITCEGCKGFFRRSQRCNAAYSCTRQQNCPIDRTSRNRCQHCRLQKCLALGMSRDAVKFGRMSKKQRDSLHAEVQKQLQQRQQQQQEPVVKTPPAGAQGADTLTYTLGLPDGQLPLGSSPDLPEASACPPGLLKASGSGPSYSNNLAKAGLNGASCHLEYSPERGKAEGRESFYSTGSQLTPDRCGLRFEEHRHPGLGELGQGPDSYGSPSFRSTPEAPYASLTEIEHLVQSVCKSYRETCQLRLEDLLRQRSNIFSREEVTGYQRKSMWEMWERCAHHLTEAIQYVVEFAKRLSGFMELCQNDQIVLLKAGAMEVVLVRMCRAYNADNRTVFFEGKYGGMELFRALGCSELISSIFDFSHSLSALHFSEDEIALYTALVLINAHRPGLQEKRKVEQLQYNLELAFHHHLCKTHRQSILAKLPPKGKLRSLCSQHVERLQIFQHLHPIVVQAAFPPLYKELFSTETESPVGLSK
human RORγt ligand binding domain (RORγt LBD), sequence (P51449 other isoform, or with tags, fused parts or gaps): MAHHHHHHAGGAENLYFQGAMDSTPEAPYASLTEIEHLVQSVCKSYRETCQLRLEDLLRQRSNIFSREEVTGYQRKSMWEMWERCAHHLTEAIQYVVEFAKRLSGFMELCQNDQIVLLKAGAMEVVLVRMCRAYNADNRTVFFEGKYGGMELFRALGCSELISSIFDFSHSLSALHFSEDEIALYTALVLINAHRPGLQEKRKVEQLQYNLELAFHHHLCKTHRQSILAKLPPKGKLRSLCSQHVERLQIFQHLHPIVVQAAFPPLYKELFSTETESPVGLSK

Regarding `CCn1nc(C(=O)NC[C@H]2CC[C@H](S(C)(=O)=O)CC2)c(Cl)c1-c1ccc(CCC(F)(F)F)cc1OC(F)F` [Example 222, 4-Chloro-5-(2-(difluoromethoxy)-4-(3,3,3-trifluoropropyl)phenyl)-1-ethyl-N-(((1r,4r)-4-(methylsulfonyl)cyclohexyl)methyl)-1H-pyrazole-3-carboxamide], the Kd in assay [1] (setting [3]) was 0.75 nM. In addition, the IC50 in assay [2] (read-out: Human Th17 Assay, IC50) amounted to 11 nM; at full-length human RORγt (HEK293T cells, read-out: RORγt (FL) Reporter Assay A or B, IC50), 6.2 nM. In addition, the “RORγt (FL) Reporter Assay A or B, % inhibition” value on full-length human RORγt (3 μM compound concentration (footnote *)) is given as 101* %.
As to `CCn1nc(C(=O)NC[C@]2(O)CC[C@@H](S(C)(=O)=O)C[C@H]2O)c(Cl)c1-c1ccc(C[C@H](C)C(F)(F)F)cc1OC(F)F` (stereo in doubt) [Example 53, 4-Chloro-5-(2-(difluoromethoxy)-4-((S*)-3,3,3-trifluoro-2-methylpropyl)phenyl)-N-(((1R*,2R*,4R*)-1,2-dihydroxy-4-(methylsulfonyl)cyclohexyl)methyl)-1-ethyl-1H-pyrazole-3-carboxamide], the Kd in assay [1] (ThermoFluor® Assay, Kd) turned out to be 1.6 nM. Besides, the IC50 in assay [2] (setting [4]) came out at 13 nM; at full-length human RORγt (setting [5]) it was 6.3 nM. Further, the inhibition at 1 µM on full-length human RORγt (HEK-293T, 1 μM compound concentration (footnote ***), read-out: RORγt (FL) Reporter Assay A or B, % inhibition) was 99%.
For `CCn1nc(C(=O)NC[C@]2(O)CC[C@@H](S(C)(=O)=O)CC2)c(C)c1-c1ccc(CCCC(F)(F)F)cc1OC(F)F` [Example 79, 5-(2-(Difluoromethoxy)-4-(4,4,4-trifluorobutyl)phenyl)-1-ethyl-N-(((1s,4s)-1-hydroxy-4-(methylsulfonyl)cyclohexyl)methyl)-4-methyl-1H-pyrazole-3-carboxamide], the Kd in assay [1] (setting [3]) is 2 nM. The IC50 in assay [2] (setting [4]) amounted to 58 nM; on full-length human RORγt (setting [5]), 8.7 nM. The inhibition at 0.67 µM on full-length human RORγt (setting [6]) was found to be 99%.
With `CCn1nc(C(=O)NC[C@]2(O)CC[C@@H](S(C)(=O)=O)C[C@H]2O)c(C)c1-c1ccc(C[C@H](C)C(F)(F)F)cc1OC(F)F` (stereo in doubt) [Example 58, 5-(2-(difluoromethoxy)-4-((S*)-3,3,3-trifluoro-2-methylpropyl)phenyl)-N-(((1R*,2R*,4R*)-1,2-dihydroxy-4-(methylsulfonyl)cyclohexyl)methyl)-1-ethyl-4-methyl-1H-pyrazole-3-carboxamide], in assay [1] (ThermoFluor® Assay, Kd), the dissociation constant Kd is 2.6 nM. The IC50 came out at 19 nM in assay [2] (setting [4]) and 9.7 nM on full-length human RORγt (setting [5]). On full-length human RORγt (setting [7]), the inhibition at 3 µM turned out to be 100%.
As to `CCn1nc(C(=O)NC[C@]2(O)CC[C@@H](S(C)(=O)=O)C[C@H]2O)c(Cl)c1-c1ccc(CC(C)(C)C(F)(F)F)cc1OC(F)F` (single isomer, unassigned) [Example 46, 4-Chloro-5-(2-(difluoromethoxy)-4-(3,3,3-trifluoro-2,2-dimethylpropyl)phenyl)-N-(((1R*,2R*,4R*)-1,2-dihydroxy-4-(methylsulfonyl)cyclohexyl)methyl)-1-ethyl-1H-pyrazole-3-carboxamide], the Kd in assay [1] (ThermoFluor® Assay, Kd) is 0.42 nM. Moreover, the IC50 was 13 nM in assay [2] (setting [4]) and 5 nM against full-length human RORγt (setting [5]). Further, the inhibition at 0.67 µM on full-length human RORγt (setting [6]) was 92%.
Regarding `COc1cc(N[C@H](C)C(F)(F)F)ccc1-c1c(Cl)c(C(=O)NC[C@H]2CC[C@H](S(C)(=O)=O)CC2)nn1CCO` [Example 201, 4-Chloro-1-(2-hydroxyethyl)-5-(2-methoxy-4-(((R)-1,1,1-trifluoropropan-2-yl)amino)phenyl)-N-(((r,4R)-4-(methylsulfonyl)cyclohexyl)methyl)-1H-pyrazole-3-carboxamide], in assay [1] (setting [3]), the Kd came out at 200 nM. For the same compound, the 50% inhibitory concentration (IC50) in assay [2] (setting [4]) was 2800 nM; against full-length human RORγt (setting [5]), 1600 nM. In addition, the inhibition at 6 µM at full-length human RORγt (HEK-293T) is 82%.
For the compound `CCn1nc(C(=O)NC[C@]2(C#N)CC[C@@H](S(C)(=O)=O)CC2)c(Cl)c1-c1ccc(N[C@H](C)C(F)(F)F)cc1OC` [Example 32, 4-Chloro-N-(((1s,4S)-1-cyano-4-(methylsulfonyl)cyclohexyl)methyl)-1-ethyl-5-(2-methoxy-4-(((R)-1,1,1-trifluoropropan-2-yl)amino)phenyl)-1H-pyrazole-3-carboxamide], in assay [1] (setting [3]), the Kd worked out at 7.6 nM. The IC50 in assay [2] (setting [4]) was found to be 62 nM; against full-length human RORγt (setting [5]), 53 nM. Besides, on full-length human RORγt (setting [8]), the inhibition at 2 µM came to 96%.
Regarding `CCn1nc(C(=O)NC[C@]2(CO)CC[C@@H](S(C)(=O)=O)CC2)c(Cl)c1-c1ccc(CC(C)C(F)(F)F)cc1OC` (some centres unmarked) [Example 92, 4-Chloro-1-ethyl-N-(((1s*,4s*)-1-(hydroxymethyl)-4-(methylsulfonyl)cyclohexyl)methyl)-5-(2-methoxy-4-(3,3,3-trifluoro-2-methylpropyl)phenyl)-1H-pyrazole-3-carboxamide], the dissociation constant Kd in assay [1] (setting [3]) is 39 nM. Also, the IC50 in assay [2] (setting [4]) stood at 270 nM; against full-length human RORγt (setting [5]), 66 nM. Besides, the inhibition at 0.67 µM on full-length human RORγt (setting [8]) came to 87%.
Take `CCn1nc(C(=O)NC[C@H]2CC[C@H](S(C)(=O)=O)CC2)c(Cl)c1-c1ccc(N[C@H](C)C(F)(F)F)cc1OC` [Example 23, 4-chloro-1-ethyl-5-(2-methoxy-4-(((R)-1,1,1-trifluoropropan-2-yl)amino)phenyl)-N-(((1 r,4R)-4-(methylsulfonyl)cyclohexyl)methyl)-1H-pyrazole-3-carboxamide]: in assay [1] (setting [3]), the Kd turned out to be 4.6 nM. Besides, the results for the IC50 (in assay [2] (setting [4]); against full-length human RORγt (setting [5])) were 38 nM and 28 nM, respectively. On full-length human RORγt (HEK-293T, 2 μM compound concentration, read-out: RORγt (FL) Reporter Assay A or B, % inhibition), the inhibition at 2 µM was found to be 104%.
In the case of `COc1cc(N[C@H](C)C(F)(F)F)ccc1-c1c(Cl)c(C(=O)NC[C@H]2CC[C@H](S(C)(=O)=O)CC2)nn1CCC#N` [Example 129, 4-Chloro-1-(2-cyanoethyl)-5-(2-methoxy-4-(((R)-1,1,1-trifluoropropan-2-yl)amino)phenyl)-N-(((1r,4R)-4-(methylsulfonyl)cyclohexyl)methyl)-1H-pyrazole-3-carboxamide], the Kd in assay [1] (ThermoFluor® Assay, Kd) was found to be 72 nM. Moreover, the results for the IC50 (in assay [2] (setting [4]); at full-length human RORγt (setting [5])) were 2300 nM and 810 nM, respectively. Further, the inhibition at 6 µM at full-length human RORγt (HEK-293T) came out at 102%.
Turning to `CCn1nc(C(=O)NC[C@]2(O)CC[C@@H](S(C)(=O)=O)CC2)c(C)c1-c1ccc(CC(C)(C)C(F)(F)F)cc1OC(F)F` [Example 143, 5-(2-(Difluoromethoxy)-4-(3,3,3-trifluoro-2,2-dimethylpropyl)phenyl)-1-ethyl-N-(((1s,4s)-1-hydroxy-4-(methylsulfonyl)cyclohexyl)methyl)-4-methyl-1H-pyrazole-3-carboxamide], the Kd in assay [1] (setting [3]) was determined as 0.37 nM. The values for the 50% inhibitory concentration (IC50) (in assay [2] (setting [4]); against full-length human RORγt (setting [5])) were 10 nM and 7.3 nM, respectively. For the same compound, on full-length human RORγt (HEK-293T, 0.22 μM compound concentration (footnote *******), read-out: RORγt (FL) Reporter Assay A or B, % inhibition), the inhibition at […] is 101%.
On to `CCn1nc(C(=O)NC[C@]2(O)CC[C@@H](S(N)(=O)=O)CC2)c(Cl)c1-c1ccc(CC(C)(C)C(F)(F)F)cc1OC(F)F` [Example 62, 4-Chloro-5-(2-(difluoromethoxy)-4-(3,3,3-trifluoro-2,2-dimethylpropyl)phenyl)-1-ethyl-N-(((1s,4s)-1-hydroxy-4-sulfamoylcyclohexyl)methyl)-1H-pyrazole-3-carboxamide], for which the Kd in assay [1] (setting [3]) stood at 0.78 nM. Moreover, the IC50 in assay [2] (setting [4]) worked out at 36 nM; against full-length human RORγt (setting [5]), 12 nM. Besides, the inhibition at 3 µM on full-length human RORγt (setting [7]) is 120%.
For `CCn1nc(C(=O)NC[C@]2(O)CC[C@@H](S(C)(=O)=O)CC2)c(Cl)c1-c1ccc(CC(C(F)(F)F)C(F)(F)F)cc1OC` [Example 85, 4-Chloro-1-ethyl-N-(((1s,4s)-1-hydroxy-4-(methylsulfonyl)cyclohexyl)methyl)-5-(2-methoxy-4-(3,3,3-trifluoro-2-(trifluoromethyl)propyl)phenyl)-1H-pyrazole-3-carboxamide], the Kd in assay [1] (setting [3]) came to 0.43 nM. Besides, the IC50 in assay [2] (setting [4]) came to 9.3 nM; against full-length human RORγt (setting [5]) it was 2.6 nM. In addition, the inhibition at 0.67 µM at full-length human RORγt (setting [6]) is 103%.
Regarding `CCn1nc(C(=O)NC[C@]2(O)CC[C@@H](S(C)(=O)=O)CC2)c(Cl)c1-c1ccc(CC(C)(C)C(F)(F)F)cc1OC(F)F` [Example 132, 4-Chloro-5-(2-(difluoromethoxy)-4-(3,3,3-trifluoro-2,2-dimethylpropyl)phenyl)-1-ethyl-N-(((1s,4s)-1-hydroxy-4-(methylsulfonyl)cyclohexyl)methyl)-1H-pyrazole-3-carboxamide], the Kd in assay [1] (setting [3]) was 0.45 nM. Besides, the half-inhibitory concentration (IC50) in assay [2] (Homo sapiens, CD4+ T, read-out: Human Th17 Assay, IC50) came out at 6 nM; on full-length human RORγt (setting [5]) it was 8.1 nM. The inhibition at 2 µM on full-length human RORγt (setting [8]) amounted to 99%.

Usually Kd stands for the concentration at which binding is half-saturated. One may read the IC50 as the point on the concentration scale where inhibition reaches its midpoint. By inhibition is commonly meant the relative decrease from the control value, in per cent.
